Calls of active or inactive are those of the source. Cut-off read from the data, not from the text of the source, for most assays here: actives have a measured EC50 and inactives only a lower limit.
Experiments:
[1] = Luminescence Cell-Based Dose Response HTS to Identify Inhibitors of 5'UTR Stem-Loop Driven Prion Protein mRNA Translation in H4 Neuroglioblastoma Cells. [Related pubchem assays: 1827 (Project Summary), 1813 (Primary HTS)]; format: functional
[2] = inhibitors of SNCA 5'UTR-driven reporter translation, confirmation, H4 neuroglioma cells, luminescence (AID 1988); format: functional, cell-based
[3] = inhibitors of firefly luciferase expression or activity, dose response, H4 neuroglioma cells, luminescence (AID 1990); format: functional, cell-based
[4] = inhibitors of clade B AD8 Env fusion, dose response, cell-based, cherry-pick (AID 652062); format: functional;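 note: luciferase signal from cell-cell fusion driven by HIV-1 clade B AD8 Env; potency is for inhibitors of fusion seen as a drop in luminescence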
[5] = target: T1, Carboxy-terminal domain RNA polymerase II polypeptide A small phosphatase 1 (Homo sapiens, UniProt Q9GZU7); assay: inhibitors of CTDSP1, concentration-response testing, biochemical assay, absorbance-based, actives from ultra-high-throughput screening (AID 540297); format: functional
T1 sequence (Q9GZU7 whole entry): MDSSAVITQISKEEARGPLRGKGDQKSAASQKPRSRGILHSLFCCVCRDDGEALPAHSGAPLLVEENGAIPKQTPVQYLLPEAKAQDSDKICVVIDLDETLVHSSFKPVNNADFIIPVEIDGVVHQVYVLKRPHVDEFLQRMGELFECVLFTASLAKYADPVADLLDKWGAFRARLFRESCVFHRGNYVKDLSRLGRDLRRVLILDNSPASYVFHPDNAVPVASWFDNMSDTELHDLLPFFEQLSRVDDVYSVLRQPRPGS

[6] = target: T2, Polyadenylate-binding protein 1 (Homo sapiens, UniProt P11940); assay: PABP1 MLLE–PAM2 binding inhibitor potency, dose response, biochemical, fluorescence polarization, FITC-PAM2 peptide (AID 602259); format: functional; conditions: read-out: IC50_Mean
[7] = target: T2, Polyadenylate-binding protein 1; assay: PABP1 MLLE–PAM2 interaction inhibitors, dose response, miRNA deadenylation inhibitor project, biochemical, fluorescence polarization, Cy5-PAM2 peptide, secondary (AID 602260); format: functional; conditions: read-out: IC50_Mean
[8] = target: T3, Calpain-2 catalytic subunit (Sus scrofa, UniProt P43367); assay: pig calpain II inhibitor potency, dose response, biochemical, fluorogenic peptide substrate (AID 1420); format: functional
T3 sequence (P43367 whole entry): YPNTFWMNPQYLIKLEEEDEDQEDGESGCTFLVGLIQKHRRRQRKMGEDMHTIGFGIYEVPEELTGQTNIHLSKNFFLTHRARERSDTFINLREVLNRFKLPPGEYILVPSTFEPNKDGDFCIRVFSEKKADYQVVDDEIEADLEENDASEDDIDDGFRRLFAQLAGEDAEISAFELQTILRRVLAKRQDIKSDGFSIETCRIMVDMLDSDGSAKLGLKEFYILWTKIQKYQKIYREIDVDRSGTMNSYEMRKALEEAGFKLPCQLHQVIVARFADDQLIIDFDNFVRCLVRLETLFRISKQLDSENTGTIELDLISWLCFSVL

BJ [9] = assay: cytotoxicity toward BJ-TERT fibroblasts, dose response, cell-based, RAS-independent, luminescence (AID 1933); format: functional; conditions: Homo sapiens
BJ [10] = assay: cells; format: functional, cell-based; conditions: Homo sapiens
BJ [11] = assay: cytotoxicity toward BJ-TERT-LT-ST fibroblasts, dose response, cell-based, RAS-independent, luminescence (AID 1935); format: functional; conditions: Homo sapiens;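 note: BJ fibroblasts immortalized with TERT plus LT and ST oncogenes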
[12] = target: T4, Heat shock factor protein 1 (Mus musculus, UniProt P38532); assay: inhibition of MG132-induced HSE-luciferase signal, confirmation, cell-based, NIH3T3, luminescence, dose retest (AID 2382); format: functional;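 note: NIH3T3 fibroblasts with HSF1-driven luciferase reporter stressed by proteasome inhibitor MG132; luminescence from HSF1-driven luciferase expression after 8 hours of MG132 stress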
T4 sequence (P38532 whole entry): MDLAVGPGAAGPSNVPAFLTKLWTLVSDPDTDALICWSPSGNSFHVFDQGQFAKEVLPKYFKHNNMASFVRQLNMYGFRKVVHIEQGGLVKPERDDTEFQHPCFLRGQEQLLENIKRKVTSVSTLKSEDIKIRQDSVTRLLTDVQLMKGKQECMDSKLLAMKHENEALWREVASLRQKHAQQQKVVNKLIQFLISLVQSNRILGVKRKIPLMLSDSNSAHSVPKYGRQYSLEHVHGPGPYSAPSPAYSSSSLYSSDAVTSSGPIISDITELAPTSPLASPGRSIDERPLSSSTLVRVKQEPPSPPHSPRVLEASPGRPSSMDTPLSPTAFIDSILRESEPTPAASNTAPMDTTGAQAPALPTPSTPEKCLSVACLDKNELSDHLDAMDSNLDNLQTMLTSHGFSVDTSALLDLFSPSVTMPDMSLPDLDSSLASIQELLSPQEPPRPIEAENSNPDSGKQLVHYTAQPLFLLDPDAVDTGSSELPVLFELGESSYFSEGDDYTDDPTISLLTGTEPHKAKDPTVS

[13] = cytotoxicity toward DRD oncogenic fibroblasts, dose response, cell-based, non-viral oncogenic, luminescence (AID 1934); format: functional; conditions: Homo sapiens
Protein RecA = target: T5, Protein RecA (Mycobacterium tuberculosis, UniProt P9WHJ3); assay: Fluorescence Cell-Free Homogeneous Dose Retest to Identify Inhibitors of RecA-Intein Splicing Activity. [Related pubchem assays (depositor defined):AID2097, AID2223, AID489010, AID492950]; format: functional
T5 sequence (P9WHJ3 whole entry): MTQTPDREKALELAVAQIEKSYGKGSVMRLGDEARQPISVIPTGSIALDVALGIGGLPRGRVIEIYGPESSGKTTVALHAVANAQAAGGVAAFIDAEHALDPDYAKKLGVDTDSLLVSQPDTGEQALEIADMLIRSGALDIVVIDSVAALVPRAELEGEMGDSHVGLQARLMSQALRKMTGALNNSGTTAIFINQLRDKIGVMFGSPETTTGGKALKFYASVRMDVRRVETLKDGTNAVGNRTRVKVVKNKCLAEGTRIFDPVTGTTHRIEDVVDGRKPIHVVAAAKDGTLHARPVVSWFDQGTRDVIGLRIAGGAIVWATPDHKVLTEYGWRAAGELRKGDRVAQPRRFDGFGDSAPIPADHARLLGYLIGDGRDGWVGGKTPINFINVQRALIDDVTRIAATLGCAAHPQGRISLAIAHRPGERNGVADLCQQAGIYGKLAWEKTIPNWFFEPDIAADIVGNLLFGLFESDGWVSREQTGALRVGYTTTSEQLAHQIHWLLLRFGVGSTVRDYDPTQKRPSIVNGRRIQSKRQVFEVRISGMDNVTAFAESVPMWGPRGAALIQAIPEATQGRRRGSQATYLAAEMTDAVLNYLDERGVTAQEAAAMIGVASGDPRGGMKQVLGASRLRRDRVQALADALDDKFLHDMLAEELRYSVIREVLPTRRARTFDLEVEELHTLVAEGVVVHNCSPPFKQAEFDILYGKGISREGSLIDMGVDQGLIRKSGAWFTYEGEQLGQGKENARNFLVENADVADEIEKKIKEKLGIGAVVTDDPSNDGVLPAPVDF

T2 sequence (P11940 whole entry): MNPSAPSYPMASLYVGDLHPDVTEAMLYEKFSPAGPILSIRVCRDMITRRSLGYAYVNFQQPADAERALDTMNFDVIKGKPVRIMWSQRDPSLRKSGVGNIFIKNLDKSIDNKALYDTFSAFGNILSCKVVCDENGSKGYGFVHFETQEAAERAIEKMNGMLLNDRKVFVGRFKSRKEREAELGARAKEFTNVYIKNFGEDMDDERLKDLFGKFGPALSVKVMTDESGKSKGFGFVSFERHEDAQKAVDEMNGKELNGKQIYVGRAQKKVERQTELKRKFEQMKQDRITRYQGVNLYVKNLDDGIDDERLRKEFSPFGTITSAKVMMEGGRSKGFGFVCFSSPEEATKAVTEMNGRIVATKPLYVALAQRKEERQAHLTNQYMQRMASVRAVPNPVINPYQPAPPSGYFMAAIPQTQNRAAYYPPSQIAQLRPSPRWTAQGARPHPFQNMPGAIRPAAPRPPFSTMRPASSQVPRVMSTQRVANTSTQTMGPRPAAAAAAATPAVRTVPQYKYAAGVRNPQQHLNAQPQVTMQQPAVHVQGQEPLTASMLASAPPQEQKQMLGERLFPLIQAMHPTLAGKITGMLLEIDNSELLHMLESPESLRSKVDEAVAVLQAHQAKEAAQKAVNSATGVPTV

CC(C)n1c(SCC(=O)N2c3ccccc3Sc3ccccc32)nc2c1c(=O)n(C)c(=O)n2C
EC50 [1]: 13.6 µM (active)
EC50 [2]: 22.2 µM (active)
EC50 [3]: 13.3 µM (active)

CN(C)CCCNC(=O)[C@H]1[C@H](CO)[C@H]2Cn3c(ccc(C4=CCCC4)c3=O)[C@H]2N1CCC(F)(F)F
AC50 [4]: 1.09 µM (active)

O=C(NCCNCc1ccccc1)c1ccco1
IC50 [5]: 9.15 µM (active)

COC(=O)C1=C(Nc2ccc(C)cc2)C=C(C)C(C(=O)OC)C1c1ccc(OC)cc1 (configuration not stated)
EC50 [1]: 15.5 µM (active)
EC50 [2]: 11 µM (active)
EC50 [3]: > 120 µM (not active)

Cc1cc2ncc(S(C)(=O)=O)c(N)n2n1
EC50 [1]: > 120 µM (not active)
EC50 [2]: > 120 µM (not active)
EC50 [3]: > 120 µM (not active)

CC(C)C(NC(=O)c1ccccc1)C(=O)NC1=NCCS1 (configuration not stated)
IC50 [6]: > 66 µM (inactive)
IC50 [7]: > 66 µM (inactive)

COCCNC(=O)NC(=O)CN1CCCc2ccccc21
IC50 [8]: < 0.4 µM (not active)

COc1ccc(N2CCN(C(=O)CCC(=O)c3cc(C)sc3C)CC2)cc1
IC50 [8]: 30.3 µM (not active)

COc1ccc(OC)c(S(=O)(=O)N2CCN(C(=O)c3cc(C4CC4)nn3-c3ccccc3)CC2)c1
IC50 [6]: > 66 µM (inactive)
IC50 [7]: > 66 µM (inactive)

O=C(CSC1=NCCS1)Nc1ccccc1F
IC50 [6]: > 66 µM (inactive)
IC50 [7]: > 66 µM (inactive)

O=C(CCl)Nc1ccccc1C(=O)c1ccccc1
EC50 (BJ [9]): > 150 µM (not active)
EC50 (BJ [10]): > 150 µM (not active)
EC50 (BJ [11]): > 150 µM (inconclusive)
EC50 [12]: > 195 µM (not active)
EC50 [13]: 35.3 µM (active)

O=C(CCS(=O)(=O)c1ccc(Br)cc1)NCCC1=CCCCC1
IC50 [5]: 9.5 µM (active)

CCOc1ccc(C(=O)c2cc([N+](=O)[O-])ccc2Cl)cc1
EC50 (BJ [9]): > 150 µM (not active)
EC50 (BJ [10]): > 150 µM (not active)
EC50 (BJ [11]): > 150 µM (not active)
EC50 [13]: > 150 µM (not active)

CCOc1cc(S(=O)(=O)n2cc(-c3ccc(F)cc3)c(N)n2)cc(OCC)c1OCC
EC50 [1]: > 120 µM (not active)
EC50 [2]: > 120 µM (not active)
EC50 [3]: 15.8 µM (active)

COc1ccccc1-c1cnnc(S)n1
EC50 (Protein RecA): 111 µM (active)

NNC(=O)c1nn(-c2ccccc2)cc1O
EC50 [1]: > 120 µM (not active)
EC50 [2]: > 120 µM (not active)
EC50 [3]: > 120 µM (not active)

Cc1cc(=O)oc2cc(NC(=O)c3cc(F)ccc3F)ccc12
IC50 [5]: 6.83 µM (active)
